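Cultured in 96-well plates, cells were exposed to test compound for 48 hours across five concentrations. The concentration for full growth arrest is given as TGI.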
Assays:
Assay in all cases: NCI tumour cell line growth inhibition, 48 h
HOP-62 NSCLC = test system: HOP-62 NSCLC
PC-3 prostate = test system: PC-3 prostate
HT29 colon = test system: HT29 colon
SK-MEL-28 melanoma = test system: SK-MEL-28 melanoma
HCT-15 colon = test system: HCT-15 colon
SF-295 CNS = test system: SF-295 CNS
ACHN renal = test system: ACHN renal
SF-539 CNS = test system: SF-539 CNS
DU-145 prostate = test system: DU-145 prostate
NCI-H226 lung = test system: NCI-H226 lung
HOP-92 NSCLC = test system: HOP-92 NSCLC
COLO 205 colon = test system: COLO 205 colon
HS 578T breast = test system: HS 578T breast
BT-549 breast = test system: BT-549 breast
LOX IMVI melanoma = test system: LOX IMVI melanoma
SR leukemia = test system: SR leukemia
OVCAR-8 ovarian = test system: OVCAR-8 ovarian
M14 melanoma = test system: M14 melanoma
HCC-2998 colon = test system: HCC-2998 colon
A498 renal = test system: A498 renal
SK-MEL-5 melanoma = test system: SK-MEL-5 melanoma
SW-620 colon = test system: SW-620 colon
RPMI-8226 leukemia = test system: RPMI-8226 leukemia
K-562 leukemia = test system: K-562 leukemia
MDA-MB-435 = test system: MDA-MB-435
HCT-116 colon = test system: HCT-116 colon
MDA-MB-231 breast = test system: MDA-MB-231 breast
SF-268 CNS = test system: SF-268 CNS
OVCAR-3 ovarian = test system: OVCAR-3 ovarian
MDA-N = test system: MDA-N
IGROV1 ovarian = test system: IGROV1 ovarian
786-0 renal = test system: 786-0 renal
TK-10 renal = test system: TK-10 renal
MALME-3M melanoma = test system: MALME-3M melanoma
NCI-H23 lung = test system: NCI-H23 lung
SNB-19 CNS = test system: SNB-19 CNS
OVCAR-4 ovarian = test system: OVCAR-4 ovarian
NCI-H460 lung = test system: NCI-H460 lung
HL-60(TB) leukemia = test system: HL-60(TB) leukemia
NCI/ADR-RES ovarian = test system: NCI/ADR-RES ovarian
UACC-257 melanoma = test system: UACC-257 melanoma
A549 NSCLC = test system: A549 NSCLC
KM12 colon = test system: KM12 colon
OVCAR-5 ovarian = test system: OVCAR-5 ovarian
EKVX NSCLC = test system: EKVX NSCLC
UO-31 renal = test system: UO-31 renal
U251 CNS = test system: U251 CNS
SN12C renal = test system: SN12C renal
MCF7 breast = test system: MCF7 breast
SK-MEL-2 melanoma = test system: SK-MEL-2 melanoma
UACC-62 melanoma = test system: UACC-62 melanoma
CCRF-CEM leukemia = test system: CCRF-CEM leukemia
SK-OV-3 ovarian = test system: SK-OV-3 ovarian
NCI-H522 lung = test system: NCI-H522 lung
CAKI-1 renal = test system: CAKI-1 renal
SNB-75 CNS = test system: SNB-75 CNS
MOLT-4 leukemia = test system: MOLT-4 leukemia

`O=c1cc(NNc2ccc3ccccc3c2)[nH]c(=S)[nH]1` gave a TGI (HOP-62 NSCLC) of 98.3 µM, a TGI (PC-3 prostate) of 46.4 µM and a TGI (HT29 colon) of 30 µM. For the same compound, the TGI (SK-MEL-28 melanoma) was greater than 100 µM, the TGI (HCT-15 colon) was 34.1 µM and the TGI (SF-295 CNS) was greater than 100 µM. For the same compound, the TGI (ACHN renal) was greater than 100 µM, the TGI (SF-539 CNS) was 82.1 µM and the TGI (DU-145 prostate) was greater than 100 µM. It also gave a TGI (NCI-H226 lung) greater than 100 µM, a TGI (HOP-92 NSCLC) of 62.1 µM and a TGI (COLO 205 colon) of 46 µM. For the same compound, the TGI (HS 578T breast) was greater than 100 µM, the TGI (BT-549 breast) was greater than 100 µM and the TGI (LOX IMVI melanoma) was 26 µM. For the same compound, the TGI (SR leukemia) was greater than 100 µM, the TGI (OVCAR-8 ovarian) was greater than 100 µM and the TGI (M14 melanoma) was greater than 100 µM. The TGI (HCC-2998 colon) was greater than 100 µM, the TGI (A498 renal) was greater than 100 µM and the TGI (SK-MEL-5 melanoma) was greater than 100 µM. For the same compound, the TGI (SW-620 colon) was 36.8 µM, the TGI (RPMI-8226 leukemia) was greater than 100 µM and the TGI (K-562 leukemia) was 41.1 µM. For the same compound, the TGI (MDA-MB-435) was greater than 100 µM, the TGI (HCT-116 colon) was greater than 100 µM and the TGI (MDA-MB-231 breast) was greater than 100 µM. The TGI (SF-268 CNS) was 80 µM, the TGI (OVCAR-3 ovarian) was 34.1 µM and the TGI (MDA-N) was greater than 100 µM. For the same compound, the TGI (IGROV1 ovarian) was greater than 100 µM, the TGI (786-0 renal) was 39.6 µM and the TGI (TK-10 renal) was greater than 100 µM. The TGI (MALME-3M melanoma) was greater than 100 µM, the TGI (NCI-H23 lung) was greater than 100 µM and the TGI (SNB-19 CNS) was greater than 100 µM. The TGI (OVCAR-4 ovarian) was greater than 100 µM, the TGI (NCI-H460 lung) was greater than 100 µM and the TGI (HL-60(TB) leukemia) was 69.5 µM. It also gave a TGI (NCI/ADR-RES ovarian) greater than 100 µM, a TGI (UACC-257 melanoma) greater than 100 µM and a TGI (A549 NSCLC) greater than 100 µM. The TGI (KM12 colon) was 38.3 µM, the TGI (OVCAR-5 ovarian) was greater than 100 µM and the TGI (EKVX NSCLC) was greater than 100 µM. It also gave a TGI (UO-31 renal) greater than 100 µM, a TGI (U251 CNS) greater than 100 µM and a TGI (SN12C renal) greater than 100 µM. For the same compound, the TGI (MCF7 breast) was 66.6 µM.
In the case of `CC1(C)CC2=C(SC3C=CC=CC3N2)C(=O)C1C(=O)C(N)=O` (configuration not stated), the TGI (HOP-62 NSCLC) is reported as greater than 100 µM, the TGI (PC-3 prostate) is reported as greater than 100 µM and the TGI (HT29 colon) is reported as greater than 100 µM. It also gave a TGI (SK-MEL-28 melanoma) greater than 100 µM, a TGI (HCT-15 colon) greater than 100 µM and a TGI (SF-295 CNS) greater than 100 µM. It also gave a TGI (SK-MEL-2 melanoma) greater than 100 µM, a TGI (ACHN renal) greater than 100 µM and a TGI (SF-539 CNS) greater than 100 µM. For the same compound, the TGI (DU-145 prostate) was greater than 100 µM, the TGI (NCI-H226 lung) was greater than 100 µM and the TGI (HOP-92 NSCLC) was greater than 100 µM. For the same compound, the TGI (COLO 205 colon) was greater than 100 µM, the TGI (HS 578T breast) was greater than 100 µM and the TGI (BT-549 breast) was greater than 100 µM. For the same compound, the TGI (LOX IMVI melanoma) was greater than 100 µM, the TGI (OVCAR-8 ovarian) was greater than 100 µM and the TGI (M14 melanoma) was greater than 100 µM. The TGI (UACC-62 melanoma) was greater than 100 µM, the TGI (HCC-2998 colon) was greater than 100 µM and the TGI (SK-MEL-5 melanoma) was greater than 100 µM. The TGI (CCRF-CEM leukemia) was greater than 100 µM, the TGI (SW-620 colon) was greater than 100 µM and the TGI (MDA-MB-435) was greater than 100 µM. For the same compound, the TGI (HCT-116 colon) was greater than 100 µM, the TGI (MDA-MB-231 breast) was greater than 100 µM and the TGI (SF-268 CNS) was greater than 100 µM. The TGI (OVCAR-3 ovarian) was greater than 100 µM, the TGI (MDA-N) was greater than 100 µM and the TGI (IGROV1 ovarian) was greater than 100 µM. It also gave a TGI (SK-OV-3 ovarian) greater than 100 µM, a TGI (786-0 renal) greater than 100 µM and a TGI (TK-10 renal) greater than 100 µM. The TGI (NCI-H23 lung) was greater than 100 µM, the TGI (SNB-19 CNS) was greater than 100 µM and the TGI (OVCAR-4 ovarian) was greater than 100 µM. It also gave a TGI (NCI-H460 lung) greater than 100 µM, a TGI (NCI-H522 lung) greater than 100 µM and a TGI (HL-60(TB) leukemia) greater than 100 µM. The TGI (NCI/ADR-RES ovarian) was greater than 100 µM, the TGI (UACC-257 melanoma) was greater than 100 µM and the TGI (CAKI-1 renal) was greater than 100 µM. The TGI (SNB-75 CNS) was greater than 100 µM, the TGI (A549 NSCLC) was greater than 100 µM and the TGI (KM12 colon) was greater than 100 µM. The TGI (OVCAR-5 ovarian) was greater than 100 µM, the TGI (EKVX NSCLC) was greater than 100 µM and the TGI (UO-31 renal) was greater than 100 µM. For the same compound, the TGI (U251 CNS) was greater than 100 µM, the TGI (SN12C renal) was greater than 100 µM and the TGI (MCF7 breast) was greater than 100 µM. The TGI (MOLT-4 leukemia) was greater than 100 µM.
In the case of `COC(=O)[C@](NC(=O)OCc1ccccc1)([C@@H](C)Sc1ccc(C)cc1)C(F)(F)F`, the TGI (HOP-62 NSCLC) is reported as greater than 100 µM, the TGI (PC-3 prostate) is reported as greater than 100 µM and the TGI (HT29 colon) is reported as greater than 100 µM. The TGI (SK-MEL-28 melanoma) was greater than 100 µM, the TGI (HCT-15 colon) was greater than 100 µM and the TGI (SF-295 CNS) was greater than 100 µM. For the same compound, the TGI (SK-MEL-2 melanoma) was greater than 100 µM, the TGI (ACHN renal) was greater than 100 µM and the TGI (SF-539 CNS) was greater than 100 µM. It also gave a TGI (DU-145 prostate) greater than 100 µM, a TGI (COLO 205 colon) of 38.4 µM and a TGI (HS 578T breast) greater than 100 µM. It also gave a TGI (BT-549 breast) greater than 100 µM, a TGI (LOX IMVI melanoma) greater than 100 µM and a TGI (SR leukemia) greater than 100 µM. For the same compound, the TGI (OVCAR-8 ovarian) was 60 µM, the TGI (M14 melanoma) was greater than 100 µM and the TGI (UACC-62 melanoma) was greater than 100 µM. It also gave a TGI (HCC-2998 colon) greater than 100 µM, a TGI (A498 renal) greater than 100 µM and a TGI (SK-MEL-5 melanoma) of 38.2 µM. The TGI (CCRF-CEM leukemia) was 50.7 µM, the TGI (SW-620 colon) was greater than 100 µM and the TGI (RPMI-8226 leukemia) was greater than 100 µM. It also gave a TGI (K-562 leukemia) greater than 100 µM, a TGI (MDA-MB-435) greater than 100 µM and a TGI (HCT-116 colon) greater than 100 µM. It also gave a TGI (SF-268 CNS) greater than 100 µM, a TGI (OVCAR-3 ovarian) greater than 100 µM and a TGI (MDA-N) greater than 100 µM. For the same compound, the TGI (IGROV1 ovarian) was greater than 100 µM, the TGI (SK-OV-3 ovarian) was greater than 100 µM and the TGI (786-0 renal) was greater than 100 µM. It also gave a TGI (MALME-3M melanoma) greater than 100 µM, a TGI (NCI-H23 lung) of 58.5 µM and a TGI (SNB-19 CNS) greater than 100 µM. For the same compound, the TGI (OVCAR-4 ovarian) was greater than 100 µM, the TGI (NCI-H460 lung) was greater than 100 µM and the TGI (NCI-H522 lung) was greater than 100 µM. It also gave a TGI (HL-60(TB) leukemia) of 78.3 µM, a TGI (NCI/ADR-RES ovarian) greater than 100 µM and a TGI (UACC-257 melanoma) greater than 100 µM. For the same compound, the TGI (CAKI-1 renal) was greater than 100 µM, the TGI (A549 NSCLC) was greater than 100 µM and the TGI (KM12 colon) was greater than 100 µM. It also gave a TGI (OVCAR-5 ovarian) greater than 100 µM, a TGI (EKVX NSCLC) greater than 100 µM and a TGI (UO-31 renal) greater than 100 µM. The TGI (U251 CNS) was greater than 100 µM, the TGI (MCF7 breast) was greater than 100 µM and the TGI (MOLT-4 leukemia) was greater than 100 µM.

Reference: PubChem BioAssay (NCI)
